Results published in PubChem BioAssay AID256 (DTP/NCI, 2004).
Several values for one entry are separate records, joined by “and”; a condition that tells them apart may be missing. Equal values may be shown once. Toxic doses and inconclusive results are not listed. The calls were made as follows: active = survival T/C of 150% or more; inactive = T/C below 125% in these data.

System: CD2F1 mice, L1210 leukemia ip, survival T/C
Assay: NCI In Vivo Anticancer Drug Screen. Data for tumor model L1210 Leukemia (intraperitoneal) in CD2F1 (CDF1) mice
Details: endpoint: mean survival time, higher = longer survival
Summary of the method: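 Each value reflects a quotient of treated over vehicle control outcomes in mice with a transplanted tumor.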

[1] = dose: 100.0 mg/kg/injection, schedule: Q04DX003 (ip), vehicle: saline with Tween-80
[2] = dose: 400.0 mg/kg/injection, schedule: Q04DX003 (ip), vehicle: saline with Tween-80
[3] = dose: 200.0 mg/kg/injection, schedule: Q04DX003 (ip), vehicle: saline with Tween-80
[4] = dose: 50.0 mg/kg/injection, schedule: Q01DX009 (ip), vehicle: Klucel (hydroxypropylcellulose) (HPC)
[5] = dose: 100.0 mg/kg/injection, schedule: Q01DX009 (ip), vehicle: Klucel (hydroxypropylcellulose) (HPC)
[6] = dose: 200.0 mg/kg/injection, schedule: Q01DX009 (ip), vehicle: Klucel (hydroxypropylcellulose) (HPC)
[7] = dose: 100.0 mg/kg/injection, schedule: Q01DX009 (ip), vehicle: saline with Tween-80
[8] = dose: 200.0 mg/kg/injection, schedule: Q01DX009 (ip), vehicle: saline with Tween-80
[9] = dose: 400.0 mg/kg/injection, schedule: Q01DX009 (ip), vehicle: saline with Tween-80

Measured: T/C

O=CNc1cccc2ccc3c4ccccc4ccc3c12
inactive: [1] 98 % of control | [2] 91 % of control

O=C(/C=C\c1ccccc1)C(=O)/C=C/c1ccccc1
inactive: [1] 94 % of control | [3] 93 % of control | [2] 95 % of control

NC(=O)c1nccnc1C(N)=O
inactive: dose: 100.0 mg/kg/injection, schedule: Q01DX001 (ip), vehicle: Klucel (hydroxypropylcellulose) (HPC) 101 % of control | dose: 200.0 mg/kg/injection, schedule: Q01DX001 (ip), vehicle: Klucel (hydroxypropylcellulose) (HPC) 108 % of control | dose: 400.0 mg/kg/injection, schedule: Q01DX001 (ip), vehicle: Klucel (hydroxypropylcellulose) (HPC) 101 % of control

CC12C(=O)OC(=O)C1(C)C1OC2C(Br)C1Br (stereo unspecified)
inactive: dose: 25.0 mg/kg/injection, schedule: Q04DX003 (ip), vehicle: saline with Tween-80 96 % of control | dose: 50.0 mg/kg/injection, schedule: Q04DX003 (ip), vehicle: saline with Tween-80 96 % of control | [1] 93 % of control and 101 % of control

CCCCCCCCC(=O)N1CCN(C(=O)CCCCCCCC)C1
inactive: dose: 75.0 mg/kg/injection, schedule: Q04DX003 (ip), vehicle: saline 94 % of control | dose: 150.0 mg/kg/injection, schedule: Q04DX003 (ip), vehicle: saline 97 % of control | dose: 300.0 mg/kg/injection, schedule: Q04DX003 (ip), vehicle: saline 95 % of control

COC(=O)c1c(C(=O)OC)c(-c2ccc(Cl)c(Cl)c2)n2c1CCC2
inactive: [4] 91 % of control | [5] 88 % of control | [6] 98 % of control

Nc1ccccc1SSc1ccccc1N
inactive: [1] 98 % of control | [3] 90 % of control

COc1cccc(/C=C/C(=O)O)c1OC
inactive: dose: 25.0 mg/kg/injection, schedule: Q01DX009 (ip), vehicle: water 88 % of control | dose: 50.0 mg/kg/injection, schedule: Q01DX009 (ip), vehicle: water 88 % of control | dose: 100.0 mg/kg/injection, schedule: Q01DX009 (ip), vehicle: water 101 % of control | dose: 200.0 mg/kg/injection, schedule: Q01DX009 (ip), vehicle: water 95 % of control | dose: 400.0 mg/kg/injection, schedule: Q01DX009 (ip), vehicle: water 95 % of control

CC1=CC(=O)[C@@H](O)[C@]2(C)[C@H]3[C@@]4(O)OC[C@]35[C@H]([C@@H](C)[C@H]4O)[C@@H](OC(=O)c3ccccc3)C(=O)O[C@@H]5C[C@@H]12
inactive: dose: 0.25 mg/kg/injection, schedule: Q01DX009 (ip), vehicle: saline with Tween-80 105 % of control | dose: 0.5 mg/kg/injection, schedule: Q01DX009 (ip), vehicle: saline with Tween-80 100 % of control | dose: 1.0 mg/kg/injection, schedule: Q01DX009 (ip), vehicle: saline with Tween-80 100 % of control | dose: 2.0 mg/kg/injection, schedule: Q01DX009 (ip), vehicle: saline with Tween-80 105 % of control

CCOc1ccc(N=Cc2ccccc2O)cc1
inactive: dose: 100.0 mg/kg/injection, schedule: Q01DX001 (ip), vehicle: saline with Tween-80 94 % of control | dose: 200.0 mg/kg/injection, schedule: Q01DX001 (ip), vehicle: saline with Tween-80 94 % of control | dose: 400.0 mg/kg/injection, schedule: Q01DX001 (ip), vehicle: saline with Tween-80 87 % of control

CC(C)OC(=O)C(NC=O)C(C)(C)S (stereo unspecified)
inactive: [7] 100 % of control | [8] 96 % of control | [9] 95 % of control

O=c1[nH]c2ccc(Cl)cc2c2ccccc12
inactive: dose: 100.0 mg/kg/injection, schedule: Q01DX001 (ip), vehicle: carboxymethylcellulose (CMC) 91 % of control | dose: 200.0 mg/kg/injection, schedule: Q01DX001 (ip), vehicle: carboxymethylcellulose (CMC) 97 % of control | dose: 400.0 mg/kg/injection, schedule: Q01DX001 (ip), vehicle: carboxymethylcellulose (CMC) 105 % of control

Cc1cc(=O)[nH]c(Nc2ccccc2)n1
inactive: [1] 105 % of control | [3] 97 % of control | [2] 88 % of control

CC(=O)Oc1c(Br)c(-c2cc([N+](=O)[O-])c(C)c([N+](=O)[O-])c2C)c(OC(C)=O)c(Br)c1-c1cc([N+](=O)[O-])c(C)c([N+](=O)[O-])c1C
inactive: [1] 93 % of control | [3] 93 % of control | [2] 87 % of control

O=C(Nc1ccc(C(=O)O)cc1)Nc1ccc(F)c(Cl)c1
inactive: [4] 109 % of control | [5] 102 % of control | dose: 100.0 mg/kg/injection, schedule: Q04DX003 (ip), vehicle: Klucel (hydroxypropylcellulose) (HPC) 104 % of control | [6] 95 % of control | dose: 200.0 mg/kg/injection, schedule: Q04DX003 (ip), vehicle: Klucel (hydroxypropylcellulose) (HPC) 104 % of control

O=C(/C=C/c1ccccc1)SCc1ccccc1
inactive: [1] 96 % of control | [3] 98 % of control | [2] 94 % of control

COc1cccc(N2CCN(CC(O)COc3ccc(N)cc3)CC2)c1 (stereo unspecified)
inactive: dose: 6.25 mg/kg/injection, schedule: Q04DX002 (ip), vehicle: other 98 % of control | dose: 12.5 mg/kg/injection, schedule: Q04DX002 (ip), vehicle: other 95 % of control | dose: 25.0 mg/kg/injection, schedule: Q04DX002 (ip), vehicle: other 107 % of control

NC(CSCc1ccccc1)C(=O)OCc1ccccc1 (stereo unspecified)
inactive: [1] 104 % of control | [3] 102 % of control | [2] 104 % of control

Cc1cc(C)c(C(=O)CC(O)(C(F)(F)F)C(F)(F)F)c(C)c1
inactive: [1] 115 % of control | [3] 107 % of control | [2] 107 % of control

O=C(CCCl)Oc1ccc(Br)cc1
inactive: [7] 94 % of control | [1] 98 % of control | [8] 96 % of control | [3] 100 % of control | [9] 102 % of control | [2] 96 % of control

O=C1CCCC(=O)N1CCCCCCN1C(=O)CCCC1=O
inactive: [7] 94 % of control | [1] 100 % of control | [8] 108 % of control | [3] 101 % of control | [2] 101 % of control
